Laboratory results reported in patent publication US20090022712A1, “Compositions and Methods for Inhibiting Leukocyte Function” (UNIVERSITY OF VIRGINIA PATENT FOUNDATION, priority 2006, published 2009).
Where a SMILES comes first, the peptide text is derived from it.

Experiments:
[1] = system: PMNs; assay: PMN oxidative burst (SOD-inhibitable reduction of cytochrome c); type: cell-based, human; conditions: TNF-α-primed adherent PMNs; peptide 20 μg/ml, dhCB 1 μg/ml
Description: Oxidative burst of adherent PMNs was quantified by measuring the superoxide dismutase (SOD)-inhibitable reduction of cytochrome c as described (67). Briefly, PMNs (1.5×10^6/ml in HBSS-0.1% human serum albumin) were incubated in polypropylene tubes (1 hour; 37° C.) in a shaking water bath with or without the PAK peptide (20 μg/ml). PMNs were transferred to a fibrinogen-coated 96 well tissue culture plate. Cytochrome c (1.44 mg/ml) and catalase (0.062 mg/ml) (both Sigma) were added to wells with or without TNF-alpha (10 U/ml). Optical density was measured at indicated times against matched controls with SOD at 550 nm. Some PMNs were treated with dihydrocytochalasin B (dhCB) (1 μg/ml) to disrupt cell spreading on the surface (68). These samples served as negative control.

[2] = system: LPS-induced PMN migration into the lung; assay: Murine model of acute lung injury: LPS-induced PMN trafficking in the lung; conditions: application of the peptide in mice in vivo
Description: Wild type male C57B1/6 mice were obtained from Jackson Labs (Bar Harbor, Me.). […] Mice were eight to twelve weeks of age. Up to four mice were exposed to aerosolized LPS in a custom-built cylindrical chamber (20×9 cm) connected to an air nebulizer (MicroAir, Omron Healthcare, Vernon Hills, Ill.). […] Control mice were exposed to saline aerosol.
PMN recruitment into the different compartments of the lung pulmonary vasculature, interstitium, alveolar airspace) was assessed as described (81). […] After 5 minutes, mice were euthanized and non-adherent PMN were removed from the pulmonary vasculature by flushing 10 ml of PBS at 25 cm H20 through the spontaneously beating right ventricle. BAL was withdrawn and lungs were removed, minced, and digested in the presence of excess unlabeled anti-GR-1 to prevent possible binding of the injected antibody to extravascular PMN. A cell suspension was prepared by passing the digested lungs through a 70 μm cell strainer (BD Falcon, Bedford, Mass.). Total cells in BAL and lung were counted and percentage of PMNs determined by flow cytometry. […] In the lung, the expression of GR-1 was used to distinguish intravascular (CD45+7/4+GR-1^+) from interstitial (CD45+7/4+GR-1^−) PMNs, which were not reached by the injected antibody 82.

[3] = In vivo distribution of the PAK inhibitory peptide (flow cytometry); conditions: for uptake of peptide by blood neutrophils: 12 hours before sample
Description: Six hours after injection, PAK-positive cells were identified by flow cytometry and their expression of CD31 and CD45 was determined. In additional experiments, mice inhaled LPS after an intraperitoneal injection of the fluorescent PAK peptide. Twelve hours later, PMNs were identified in blood, lungs, and BAL by their expression of CD45, GR-1, and 7/4 and investigated for their peptide uptake. In some experiments, lungs from these mice were fixed for confocal microscopy.

[4] = target: adaptor protein Nck (UniProt P16333); assay: cell-based or functional assay

C=C1[C@@H](C)[C@H]2[C@H](Cc3ccccc3)NC(=O)[C@]23OC(=O)CC[C@H](O)CCC[C@@H](C)C/C=C/[C@H]3[C@@H]1O [dihydrocytochalasin B]
adhesion-induced oxidative burst (superoxide production) [1]: reduced

CSCC[C@H](NC(=O)[C@@H](NC(=O)[C@H](CO)NC(=O)[C@@H](NC(=O)[C@H](CC(N)=O)NC(=O)[C@H](CCCNC(=N)N)NC(=O)[C@H](CCSC)NC(=O)[C@@H]1CCCN1C(=O)[C@@H]1CCCN1C(=O)[C@H](C)NC(=O)[C@@H]1CCCN1C(=O)[C@@H]1CCCN1C(=O)[C@H](CCCCN)NC(=O)CNC(=O)[C@H](CCCNC(=N)N)NC(=O)[C@H](CCCNC(=N)N)NC(=O)[C@H](CCCNC(=N)N)NC(=O)[C@H](CCC(N)=O)NC(=O)[C@H](CCCNC(=N)N)NC(=O)[C@H](CCCNC(=N)N)NC(=O)[C@H](CCCCN)NC(=O)[C@H](CCCCN)NC(=O)[C@H](CCCNC(=N)N)NC(=O)CNC(=O)[C@@H](N)Cc1ccc(O)cc1)[C@@H](C)O)[C@@H](C)O)C(=O)O [tat-PAK peptide] (H-YGRKKRRQRRRGKPPAPPMRNTSTM-OH; N-terminus and C-terminus assumed)
adverse side effects [2]: no apparent adverse side effects | PMNs in the BAL containing peptide ([3]; i.v. 1 mg, 12 h, LPS): almost all neutrophils found in the BAL are non-fluorescent | PMNs in the lung containing peptide ([3]; i.v. 1 mg, 12 h, LPS): one-third | uptake of peptide by blood neutrophils ([3]; i.v. 1 mg): taken up by neutrophils | uptake of peptide by blood neutrophils ([3]; i.v. 1 mg, listed as PAK peptide): most PMNs are PAK peptide+ | share of peptide-positive lung cells that are CD45 positive ([3]; intraperitoneal, six hours after injection, lung cell suspension): 80%

tat-PAK peptide (inhibitory PAK peptide; first proline-rich domain of PAK fused to the HIV TAT transduction sequence)
F-actin content in CXCL1-stimulated human PMNs (flow cytometry) [4]: 30 fold
